US12433871B2, “Effects of age-dependent changes in cell size on endothelial cell growth” (The Medical College of Wisconsin, Inc., priority 2019, dated 2025)

How the values were obtained:
CDC42 = target: T1, CDC42 (Homo sapiens, UniProt P60953); test: GTP-CDC42 levels by immunofluorescence in aged human adipose ECs treated with ML141; format: cell-based; settings: ECs from >50 y.o. human adipose tissues, ML141 500 nM
T1 construct: endogenous in cells; host or cells: primary endothelial cells isolated from >50 y.o. human adipose tissue
T1 sequence (P60953 whole entry): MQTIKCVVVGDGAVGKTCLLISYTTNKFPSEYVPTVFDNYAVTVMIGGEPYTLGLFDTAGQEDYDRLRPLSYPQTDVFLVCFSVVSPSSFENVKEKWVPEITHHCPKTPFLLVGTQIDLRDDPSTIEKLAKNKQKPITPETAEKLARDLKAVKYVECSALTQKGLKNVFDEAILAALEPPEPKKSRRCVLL
Text: (§1) FIGS. 3A-3F show CDC42-YAP1 mediates cell size-dependent changes in EC senescence in aged ECs. (FIG. 3A) Representative immunoblots showing YAP1, YAP1S127 phosphorylation, and β-actin protein levels in ECs isolated from >50 y.o. human adipose tissues treated with retrovirus overexpressing full-length YAP1 or YAP1S127A (left). Graph showing the quantification of immunoblots (right, n=3, *, p<0.05). (FIG. 3B) IF micrographs showing P16^INK4A expression and DAPI in ECs isolated from >50 y.o. human adipose tissues treated with retrovirus overexpressing full-length YAP1 or YAP1S127A, cultured on FN-coated island of different sizes. Scale bar, 10 (FIG. 3C) Graph showing quantification of P16^INK4A integrated density (n=7, mean±s.e.m., *, p<0.05). […] Graph showing quantification of GTP-CDC42 integrated density (n=7, mean±s.e.m., *, p<0.05). […] Graph showing the quantification of immunoblots (bottom, n=3, *, p<0.05). […] Scale bar, Graphs showing quantification of P16^INK4A integrated density (bottom left) and nuclear YAP1 (bottom right) (n=7, mean±s.e.m., *, p<0.05).
(§2) In an in vitro cell culture study human adipose endothelial cells were treated with ML141 (500 nM with DMSO). […] One week later, the gel was removed and analyzed blood vessel formation using immunohistochemical analysis.

YAP1 [1] = test: Immunoblot of YAP1S127 phosphorylation in aged human adipose ECs treated with ML141; format: cell-based; settings: ML141 500 nM, compared to those without ML141 treatment
Text: as §1, §2

YAP1 [2] = test: YAP1 nuclear localization in aged ECs cultured on FN-coated microcontact-printed islands; format: cell-based, human; settings: aged ECs on the large island (2500 μm2), ML141 500 nM, compared to those without ML141 treatment
Procedure: To directly analyze whether EC size controls YAP1 activity, we prepared microcontact-printed substrates consisting of square FN-coated islands (600-2500 μm2) surrounded by non-adhesive regions, in which we directly stamped FN (50 μg/ml) onto activated polydimethylsiloxane-coated cover slips and blocked unstamped areas with Pluronic F-127 [49, 50]. […] In contrast, when we cultured 24M old mouse lung ECs on the large islands, YAP1 was excluded from the nucleus, while YAP1 was in the nucleus on the medium size islands (FIGS. 6D and 6E).
(§3) In an in vitro cell culture study human adipose endothelial cells were treated with ML141 (500 nM with DMSO). In an in vivo mouse study hydrogel mixed with young or aged human endothelial cells or in combination with ML141 (500 nM with DMSO) was implanted on the back of the immunocompromised mouse. One week later, the gel was removed and analyzed blood vessel formation using immunohistochemical analysis.
Microcontact printing system—Stamps were created using soft lithography as described previously. Polydimethylsiloxane (PDMS) stamps were made by casting the polymer against master molds made by standard photolithography using the negative photoresist SU-8 (MicroChem). Substrates for stamping were fabricated by spin-coating a thin layer of PDMS (Sylgard-184, Dow Corning) onto glass coverslips. […]

[3] = test system: ECs isolated from >50 y.o. human adipose tissues; test: EC senescence (p16INK4A staining) in aged ECs cultured on FN-coated microcontact-printed islands; format: cell-based; settings: aged ECs on the large island (2500 μm2), ML141 500 nM, compared to those without ML141 treatment
Procedure: as §3
EC proliferation was analyzed by a BrdU incorporation assay or a Click-iT® Plus EdU Proliferation Assay. Mouse lung and human adipose ECs were plated in EBM2 with 2% serum, pulsed with 5 μM BrdU for 16 h, immunostained and imaged using a confocal Leica SP5 microscope. Cellular senescence was characterized using a SA-β galactosidase assay kit (cell signaling) or anti-P16^INK4A staining. The specificity of P16^INK4A staining was confirmed by 2nd Ab alone staining (Supplementary FIG. 1D). The microscopic images were analyzed on at least five images using imageJ software (NIH) and the same contrast and brightness were used to compare the images.
Microcontact printing system—Stamps were created using soft lithography as described previously. Polydimethylsiloxane (PDMS) stamps were made by casting the polymer against master molds made by standard photolithography using the negative photoresist SU-8 (MicroChem). […]

aged human adipose ECs = test: Mouse subcutaneous fibrin gel implantation (blood vessel formation and dextran leakage); format: in vivo, NSG mouse
Procedure: as §3
Mouse subcutaneous fibrin gel implantation—The in vivo animal study was carried out in strict accordance with the recommendations in the Guide for the Care and Use of Laboratory Animals of the National Institutes of Health. The protocol was reviewed and approved by the Animal Care and Use Committee of Medical College of Wisconsin. NOD scid gamma (NSG) mice (8 week old; Jackson Laboratory) and C57BL6 mice (Jackson Laboratory and NIA/NIH rodent colonies) were used for the study. Fibrin gel was fabricated as described. […] Vascular network formation of GFP-labeled human adipose ECs was evaluated by measuring the area and length of GFP-labeled blood vessels from five different areas of the gel. The vascular permeability was measured using low MW fluorescently labeled dextran (MW 4000, Sigma) leakage. […]

COc1ccc(C2CC(c3ccccc3)=NN2c2ccc(S(N)(=O)=O)cc2)cc1 (stereo not drawn) [ML141]
CDC42 activity (GTP-CDC42 integrated density) (CDC42): Inhibition of CDC42 activity | decrease in YAP1S127 phosphorylation (YAP1 [1]): 72% | levels of nuclear YAP1, times higher (YAP1 [2]): 1.2 times | intensity of senescence marker p16INK4A, lower [3]: 45% | aged EC-derived blood vessel length, times longer (aged human adipose ECs; fibrin gel with aged human adipose ECs, ML141 500 nM in gel, subcutaneous in NSG mouse, 7 days): 2.5 times | leakage of fluorescently labeled dextran in the gel (aged human adipose ECs; gel with aged ECs, ML141 500 nM, dextran by systemic injection): attenuated the leakage of dextran
